Tests used:
GST-talin head = target: T1, GST-talin head (Homo sapiens, UniProt Q9Y490); assay: GST pull-down competition: displacement of His-β1-integrin tail from GST-talin head; format: binding; settings: for binding affinity to talin of phosphorylated β1-integrin peptides: competing integrin tail binding from talin; for binding affinity for talin compared with unphosphorylated peptide PN: binding assay between talin and integrin (FIG. 2)
T1 construct: Human talin1 head region (1-435) was cloned from HEK293T cells by PCR and subcloned into pET42; made in house; host or cells: E. coli BL21(DE3)
T1 sequence (Q9Y490 1-435): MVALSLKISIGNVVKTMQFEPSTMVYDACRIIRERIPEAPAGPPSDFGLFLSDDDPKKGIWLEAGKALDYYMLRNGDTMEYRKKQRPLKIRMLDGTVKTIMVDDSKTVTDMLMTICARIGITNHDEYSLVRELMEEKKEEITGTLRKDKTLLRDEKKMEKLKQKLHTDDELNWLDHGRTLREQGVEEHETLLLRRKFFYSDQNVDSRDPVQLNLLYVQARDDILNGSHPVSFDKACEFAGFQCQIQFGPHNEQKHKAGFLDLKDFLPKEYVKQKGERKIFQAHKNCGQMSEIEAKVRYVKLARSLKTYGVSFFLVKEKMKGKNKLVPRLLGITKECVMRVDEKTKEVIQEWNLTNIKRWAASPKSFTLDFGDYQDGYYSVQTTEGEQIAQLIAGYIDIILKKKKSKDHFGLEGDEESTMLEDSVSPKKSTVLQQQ
Procedure: Talin interactions were assessed by GST pull-down using recombinant GST-talin head, His-PIPKIγ635 C-terminus, His-PIPKIγ661 wild-type or Tyr to Phe mutant C-terminus, and His-β1-integrin tail. […] Peptides containing the PIPKIγ661/talin binding sequence (Di Paolo, et al. (2002) supra) were designed to include phosphorylated Tyr^644, phosphorylated Tyr^649, and dual phosphorylated Tyr^644 and Tyr^649.
In a screening assay to identify an agent which modulates the activity of PIPKIγ661 as defined by the binding interaction between PIPKIγ661 and talin, the step of detecting the activity of PIPKIγ661 is carried out by detecting and measuring the binding of PIPKIγ661 to talin. The detection and measurement of this binding interaction will be dependent on the type of screening assay performed and the labels used. Such screening assays to detect binding between two proteins in the presence of a test agent are well-known in the art. […] An exemplary binding assay of this type was conducted using PIPKIγ661 peptides of the sequence Cys-Asp-Glu-Arg-Scr-[…](peptide designated PN; SEQ ID NO:12) which are encompassed within the C-terminal 25 amino acid residues of PIPKIγ661 and interact with talin at the same site as integrin. […] Fluorescent probes may be linked to the cysteine residue using conventional thiol or thiolester linkages. […] In this assay, an agent which is an inhibitor of the interaction between PIPKIγ661 and talin blocks binding of a peptide of SEQ ID NO:12 and changes the fluorescent emission anisotropy as compared to a control (e.g., binding in the absence of the inhibitor).
(§1) Purified GST-talin head proteins were incubated with PIPKIγ661 tails or β1-integrin tail, together with Glutathione SEPHAROSE™ 4 Fast Flow (Amersham Biosciences, Piscataway, N.J.), in Buffer B (PBS, 0.2% NP-40, 2 mM DTT) at 4° C. for 4 hours. The beads were washed three times with Buffer B and analyzed by western blot. For competition assays, GST-talin head proteins were incubated with peptides or competing proteins for 2 hours, then the binding proteins were added and the mixtures were incubated for another 4 hours.

Src family kinases = assay: Tyrosine phosphorylation of PIPKIγ661 in cells with Src-specific inhibitor; format: cell-based
From the text: In the FAK signaling pathway, Src family tyrosine kinases bind to and are activated by FAK, playing a fundamental role in focal adhesion organization (Parsons, et al. (2000) Oncogene 19:5606-5613; Cobb, et al (1994) Mol. Cell. Biol. 14:147-155; Schaller, et al. (1994) Mol. Cell. Biol. 14:1680-1688; Schaller, et al. (999) Mol. Cell. Biol. 10:3489-3505). To determine if Src family kinases phosphorylate PIPKIγ661, Src-specific inhibitor PP2 was employed. […] PIPKIγTyr^649->Phe is efficiently phosphorylated by c-Src.
HEK 293T cells and NRK cells were cultured in Dulbecco's modified Eagle's medium (DMEM) (Mediatech, Inc., Herndon, Va.) supplemented with 10% fetal bovine serum (INVITROGEN™, Carlsbad, Calif.) and antibiotics. NRK cells were transfected using FUGENE™ 6 (Roche, Indianapolis, Ind.) according to manufacturer's instructions for 24 hours. […]
Immunoprecipitation was performed using standard methods (Zhang, et al. (1997) J. Biol. Chem. 272:17756-17761). […] The immunocomplexes were washed with Buffer A, separated by SDS-polyacrylamide gel electrophoresis (SDS-PAGE), and analyzed as indicated. […]

HEK293T cells = assay: Co-immunoprecipitation of talin with PIPKIγ661 from suspended HEK293T cells after stimulation; format: cell-based; settings: stimulated
Procedure: The association between PIPKIγ661 and talin was also regulated by adhesion to type I collagen. […] However, in suspended cells, the PIPKIγ661 association with talin was restored when cells were stimulated with lysophosphatidic acid (LPA) or platelet-derived growth factor (PDGF).
Immunoprecipitation was performed using standard methods (Zhang, et al. (1997) J. Biol. Chem. 272:17756-17761). Briefly, transfected HEK293T cells were harvested and lysed in Buffer A (50 mM Tris-HCl, pH 7.5, 150 mM NaCl, 0.1-1.0% NP-40, 5.0 mM NaF, 2 mM Na3VO4, 4 mM Na2P2O7, 1 mM EDTA, 0.1 mM EGTA, 1 mM phenylmethyl sulphonyl fluoride (PMSF), 10% glycerol), centrifuged and incubated with protein A—Sepharose and 5 μg anti-HA, anti-c-Myc, anti-Flag, anti-PIPKIγ or anti-talin antibody as indicated at 4° C. for 4 hours to overnight. The immunocomplexes were washed with Buffer A, separated by SDS-polyacrylamide gel electrophoresis (SDS-PAGE), and analyzed as indicated. For the kinase assay, the immunocomplexes were washed and stored in kinase buffer.
Transfected HEK 293T cells were washed with phosphate-buffer saline (PBS) and detached with 0.25% trypsin at 37° C. The cells were harvested and washed with PBS, and suspended in serum-free DMEM at 37° C. for 1 hour. […]

GST-talin Arg^358->Gln = GST-talin Arg^358->Gln (Homo sapiens, UniProt Q9Y490, R358Q); settings: peptide competing His-PIPKIγ661 binding
Sequence of GST-talin Arg^358->Gln (Q9Y490 1-435 R358Q): as the sequence (Q9Y490 1-435) above, with R358Q counted along it
From the text: (§2) From structural studies of integrin binding to talin, a conserved tryptophan in β-integrin tail is positioned near two basic residues, Lys^357 and Arg^358 of talin F3 lobe (Garcia-Alvarez, et al. (2003) supra). […] The role of PIPKIγ661 phosphorylation was examined by using phosphorylated peptides to compete His-PIPKIγ661 binding to wild-type or mutant GST-talin. […] To further analyze this, β1-integrin peptides phosphorylated at Thr of Trp-Asp-Thr and at Tyr of Asn-Pro-Ile-Tyr (SEQ ID NO: 1) were synthesized and used to compete integrin tail binding from talin.
(§3) Human talin1 head region (1-435) was cloned from HEK293T cells by PCR and subcloned into pET42. The C-terminal truncated or site-directed mutagenesis for the PIPKIγ661 mutants or talin head was performed using PCR-primer overlap extension with mutagenic primers. PIPKIγ661 mutants were then subcloned into pcDNA3.1 and talin head mutants were subcloned into pET42. His-tagged mouse β1-integrin tail was made using well-established methods (Pfaff, et al. (1998) supra) and subcloned into pET28. The C-terminus of PIPKIγ635 (439-635), PIPKIγ661 (439-661), or the Tyr to Phe mutants of PIPKIγ661 were PCR amplified from the corresponding pcDNA3.1 constructs and subcloned into pET28. […] FAK, FAKTyr397Phe, kinase dead FAK and c-Src constructs were generated using well-known methods.
as §1

GST-talin Lys^357->Gln = GST-talin Lys^357->Gln (Homo sapiens, UniProt Q9Y490, K357Q); settings: peptide competing His-PIPKIγ661 binding
Sequence of GST-talin Lys^357->Gln (Q9Y490 1-435 K357Q): as the sequence (Q9Y490 1-435) above, with K357Q counted along it
From the text: as §2, §3, §1

## Cys-Met-Asn-Ala-Lys-Trp-Asp-*T-Gly-Glu-Asn-Pro-Ile-Tyr-Lys-Ser-Ala [β1InpT]
GST-talin head
  binding affinity to talin of phosphorylated β1-integrin peptides: did not increase binding affinity

## CC(C)(C)n1nc(-c2ccc(Cl)cc2)c2c(N)ncnc21 [PP2]
Src family kinases; FAK-induced
  FAK-induced tyrosine phosphorylation of PIPKIγ661: dramatically inhibited
Src family kinases; basal
  basal tyrosine phosphorylation of PIPKIγ661: dramatically inhibited

## lysophosphatidic acid [LPA, reference compound]
HEK293T cells
  PIPKIγ661 association with talin: restored

## Cys-Asp-Glu-Arg-Ser-Trp-Val-Tyr-Ser-Pro-Leu-His-*Tyr-Ser-Ala-Arg [pY649]
GST-talin head
  binding affinity for talin compared with unphosphorylated peptide PN: higher binding affinity
GST-talin Arg^358->Gln
  affinity of binding to talin mutant Arg^358->Gln: loss of affinity
GST-talin Lys^357->Gln
  affinity of binding to talin mutant Lys^357->Gln: lower affinity

## Cys-Met-Asn-Ala-Lys-Tp-Asp-Thr-Gly-Glu-Asn-Pro-Ile-*Tyr-Lys-Ser-Ala [β1 InpY]
GST-talin head
  binding affinity to talin of phosphorylated β1-integrin peptides: lower binding affinity

## Cys-As-Glu-Arg-Ser-Trp-Val-*Tyr-Ser-Pro-Leu-His-Tyr-Ser-Ala-Arg [pY644]
GST-talin head
  binding affinity for talin compared with unphosphorylated peptide PN: higher binding affinity
GST-talin Arg^358->Gln
  affinity of binding to talin mutant Arg^358->Gln: loss of affinity
GST-talin Lys^357->Gln
  affinity of binding to talin mutant Lys^357->Gln: retained high affinity binding

## Cys-Asp-Glu-Arg-Ser-Trp-Val-*Tyr-Ser-Pro-Leu-His-*Tyr-Ser-Ala-Arg [pY644/649]
GST-talin head
  binding affinity for talin compared with unphosphorylated peptide PN: higher binding affinity

## PDGF
HEK293T cells
  PIPKIγ661 association with talin: restored

## Cys-Asp-Glu-Arg-Ser-Trp-Val-Tyr-Ser-Pro-leu-His-Tyr-Ser-Ala-Arg [PN]
GST-talin head; in vitro
  displacement of His-β1-integrin from GST-talin: poorly displaced

B1: His-PIPKIγ661: recombinant His-tagged PIPKIγ661 wild-type C-terminus (439-661) (protein)
chain: MSSTVFRKSSSLKSSPSKKGRGALLAVKPLGPTAAFSASQIPSEREDVQYDLRGARSYPTLEDEGRPDLLPCTPPSFEEATTASIATTLSSTSLSIPERSPSDTSEQPRYRRRTQSSGQDGRPQEEPHAEDLQKITVQVEPVCGVGVVPKEEGAGVEVPPCGASAAASVEIDAASQASEPASQASDEEDAPSTDIYFPTDERSWVYSPLHYSARPASDGESDT
modifications: left off: small tags and cut ends
GST-talin head; recombinant C-terminus proteins
  competition with His-β1-integrin for binding to GST-talin: competed with His-β1-integrin for binding to GST-talin in a dose-dependent manner

— patent publication US7494784B2, “Method of treating cell-migration conditions or diseases” (Wisconsin Alumni Research Foundation, priority 2003, dated 2009)
